# From ChEMBL document CHEMBL5230122, “Natural products and other inhibitors of F1FO ATP synthase” (Eur J Med Chem, 2020)
# pEC50, pIC50, pKi: −log10 of the molar value.
# What was measured:
# Jurkat = assay: Anticancer activity against human Jurkat cells assessed as reduction in cell viability incubated for 72 hrs by CellTiter-Glo luminescent cell viability assay; assay type: functional, cell-based
# LoVo = assay: Anticancer activity against human LoVo cells assessed as reduction in cell viability incubated for 72 hrs by CCK-8 assay; assay type: functional, cell-based
# U-937 = assay: Anticancer activity against human U-937 cells assessed as reduction in cell viability incubated for 72 hrs by CellTiter-Glo luminescent cell viability assay; assay type: functional, cell-based; settings: U-937, 72 h
# NCI-H1299 = assay: Anticancer activity against human NCI-H1299 cells assessed as reduction in cell viability incubated for 72 hrs by CCK-8 assay; assay type: functional, cell-based; settings: NCI-H1299, 72 h
# SW480 = assay: Anticancer activity against human SW480 cells assessed as reduction in cell viability incubated for 72 hrs by CellTiter-Glo luminescent cell viability assay; assay type: functional, cell-based; settings: SW480, 72 h
# HL-60 = assay: Anticancer activity against human HL-60 cells assessed as reduction in cell viability incubated for 72 hrs by CCK-8 assay; assay type: functional, cell-based; settings: HL-60, 72 h
# KB 3-1 = assay: Anticancer activity against human KB-3-1 cells assessed as reduction in cell viability incubated for 72 hrs by CellTiter-Glo luminescent cell viability assay; assay type: functional, cell-based; settings: KB 3-1, 72 h
# MCF7 [1] = assay: Anticancer activity against human MCF7 cells assessed as reduction in cell viability incubated for 72 hrs by CCK-8 assay; assay type: functional, cell-based; settings: MCF7, 72 h
# HCT-116 = assay: Anticancer activity against human HCT-116 cells assessed as reduction in cell viability incubated for 72 hrs by CellTiter-Glo luminescent cell viability assay; assay type: functional, cell-based; settings: HCT-116, 72 h
# SK-OV-3 = assay: Anticancer activity against human SK-OV-3 cells assessed as reduction in cell viability incubated for 72 hrs by CellTiter-Glo luminescent cell viability assay; assay type: functional, cell-based; settings: SK-OV-3, 72 h
# T47D = assay: Antiproliferative activity against human T47D assessed as inhibition of cell viability incubated for 72 hrs by CCK-8 assay; assay type: functional, cell-based
# MCF7 [2] = assay: Antiproliferative activity against human MCF7 assessed as inhibition of cell viability incubated for 72 hrs by CCK-8 assay; assay type: functional, cell-based; settings: MCF7, 72 h
# [3] = Inhibition of bovine heart mitochondria ATP synthase in presence of PEP, PK, LDH and NADH for 1 hrs by MitoTox microplate assay; design: species or system Bos taurus
# [4] = Non-competitive inhibition of bovine heart mitochondrial F0F1-ATP synthase incubated for 25 mins by ATPase assay; assay type: mitochondria, Bos taurus, Mitochondria
# [5] = Anticancer activity against rat Ad12-3Y1-Z13 cells assessed as reduction in cell viability incubated for 72 hrs by MTT assay; assay type: functional, cell-based; settings: Ad12-3Y1-Z13, 72 h
# [6] = Anticancer activity against rat E1A-3Y1-2 cells assessed as reduction in cell viability incubated for 72 hrs by MTT assay; assay type: functional, cell-based; settings: E1A-3Y1-2, 72 h
# HeLa S3 = assay: Anticancer activity against human HeLa S3 cells assessed as reduction in cell viability incubated for 48 hrs by WST-8 assay; assay type: functional, cell-based; settings: HeLa S3, 48 h
# [7] = Anticancer activity against rat E1A-3Y1-1 cells assessed as reduction in cell viability incubated for 72 hrs by MTT assay; assay type: functional, cell-based; settings: E1A-3Y1-1, 72 h
# [8] = Anticancer activity against rat E1A-3Y1-3 cells assessed as reduction in cell viability incubated for 72 hrs by MTT assay; assay type: functional, cell-based; settings: E1A-3Y1-3, 72 h
# [9] = Anticancer activity against rat Ad12-3Y1-Z19 cells assessed as reduction in cell viability incubated for 72 hrs by MTT assay; assay type: functional, cell-based; settings: Ad12-3Y1-Z19, 72 h
# [10] = Anticancer activity against rat Ad12-3Y1-W5 cells assessed as reduction in cell viability incubated for 72 hrs by MTT assay; assay type: functional, cell-based; settings: Ad12-3Y1-W5, 72 h
# [11] = Anticancer activity against rat Ad12-3Y1-Z11 cells assessed as reduction in cell viability incubated for 72 hrs by MTT assay; assay type: functional, cell-based; settings: Ad12-3Y1-Z11, 72 h
# CL1-0 = assay: Antiproliferative activity against human CL1-0 cells assessed as reduction in cell proliferation incubated for 48 hrs by xCELLigence RTCA system analysis; assay type: functional, cell-based; settings: CL1-0, 48 h
# A549 = assay: Antiproliferative activity against human A549 cells assessed as reduction in cell proliferation incubated for 48 hrs by xCELLigence RTCA system analysis; assay type: functional, cell-based; settings: A549, 48 h
# PC-12 [12] = assay: Cytoprotective activity against glutamate induced-toxicity in rat PC-12 cells assessed as reduction in cell death for 24 hrs by MTT assay; assay type: functional, cell-based; settings: PC-12, 24 h
# PC-12 [13] = assay: Cytoprotective activity against KCN induced-toxicity in rat PC-12 cells assessed as reduction in cell death for 24 hrs by MTT assay; assay type: functional, cell-based; settings: PC-12, 24 h
# Rattus norvegicus = species: Rattus norvegicus; assay: Inhibition of rat liver mitochondrial F0F1-ATP synthase hydrolytic activity at 5 uM in presence of MgATP; settings: Mitochondria
# CAKI-1 = assay: Antiproliferative activity against human CAKI-1 cells assessed as reduction in cell proliferation incubated for 96 hrs by Cell TiterGlo assay; assay type: functional, cell-based; settings: CAKI-1, 96 h
# [14] = Neuroprotective activity against amyloid beta induced cell death in rat Primary hippocampal neuron cells assessed as increase in cell viability incubated for 2 days by lactate dehydrogenase release assay; assay type: functional, cell-based; settings: Hippocampal neurone, 48 h
# Cortical neurone = assay: Neuroprotective activity against rat Primary cortical neuron cells assessed as rescue of cell death incubated for 2 days by fluorescent live-dead assay; assay type: functional, cell-based; settings: 48 h
# [15] = Binding affinity to mitochondrial ATP5A in mouse HT-22 cells measured after 15 mins by LC/MS/MS based pull-down assay; assay type: cell-based
# [16] = Inhibition of bovine heart mitochondrial F0F1-ATP synthase for 1 hr by microplate reader analysis; assay type: mitochondria, Bos taurus, Mitochondria
# HepG2 = assay: Cytotoxicity against human HepG2 cells assessed as reduction in glucose induced mitochondrial toxicity by measuring ATP depletion incubated for 24 hrs by CellTiter-Glo luminescent cell viability assay; assay type: functional, cell-based; settings: HepG2, 24 h
# [17] = Inhibition of bovine heart mitochondrial F0F1-ATP synthase assessed as reduction in NADH oxidation for 40 mins by MitoTox Complex V OXPHOS activity microplate assay; assay type: mitochondria, Bos taurus, Mitochondria
# [18] = Inhibition of thrombin-induced hyperpermeability of human HMEC-1 cells at 10 uM preincubated for 20 mins followed by thrombin addition and measured for 60 mins by transwell assay; assay type: functional; settings: HMEC-1, 1.333 h, time 80 min
smiles,measurement,setting,value
CC(=O)C(=O)N[C@H](C(=S)N[C@@H](CC[S+](C)[O-])C(=S)N[C@@H](C)C(=O)N[C@@H](C)C(=S)N[C@@H](C)C(=S)N[C@@H](C)C(=O)N[C@H]1C(=O)N[C@@H](C(C)C)C(=O)N[C@@H](C)C(=O)N[C@@H](Cc2ccccc2)C(=O)N[C@@H](C(O)c2cn(C)c[n+]2C)C(=O)N/C=C\SC1C)C(C)C (stereo not given in full),pIC50,Jurkat,5.28
same,pIC50,LoVo,5.93
same,pIC50,U-937,4.77
same,pIC50,NCI-H1299,5.30
same,pIC50,SW480,4.91
same,pIC50,HL-60,5.83
same,pIC50,KB 3-1,5.35
same,pIC50,MCF7 [1],6.08
same,pIC50,HCT-116,6.29
same,pIC50,SK-OV-3,4.68
CCC(C)N(C)C(=O)c1cc2ccccc2c(-c2ccccc2Cl)n1 (stereo not given) [PK-11195],pIC50,T47D,8.22
same,pIC50,MCF7 [2],8.27
CNC(=O)c1cc(Oc2ccc(NC(=O)Nc3ccc(Cl)c(C(F)(F)F)c3)cc2)ccn1 [SORAFENIB],pIC50,[3],5.60
NCCc1ccc(Oc2ccc(O)cc2)c(I)c1,pIC50,[4],4.56
CC[C@H](C)[C@@H]1NC(=O)[C@H](NC(=O)[C@H](C)NC(=S)[C@H](C)NC(=S)[C@H](C)NC(=S)[C@H](C)NC(=S)[C@H](CCSC)NC(=S)[C@@H](NC(=O)C(C)=O)C(C)C)CS/C=C\NC(=O)[C@H](C(O)c2cn(C)c[n+]2C)NC(=O)[C@H](CC(C)C)NC(=O)[C@H](C)NC1=O (stereo not given in full),pIC50,[5],7.80
same,pIC50,[6],7.68
same,pIC50,HeLa S3,6.44
same,pIC50,[7],7.68
same,pIC50,[8],7.68
same,pIC50,[9],7.80
same,pIC50,[10],7.80
same,pIC50,[11],7.80
COc1cc(=O)oc(/C=C/C=C/C=C/C(C)=C/[C@]2(C)O[C@H](C)[C@](C)(O)[C@H]2O)c1C,pIC50,CL1-0,5.82
same,pIC50,A549,5.82
CCOC(=O)C1=C(C)NC2=C(C=Nc3ccccc3N2)[C@@H]1c1ccccc1[N+](=O)[O-],pIC50,PC-12 [12],7.54
same,pIC50,PC-12 [13],8.10
same,inhibition,Rattus norvegicus,67%
Nc1ncnc2c1nc(Cl)n2[C@@H]1O[C@H](CO)[C@@H](O)[C@H]1O [8-CHLOROADENOSINE],pIC50,CAKI-1,5.70
COc1cccc(/C=N/N(C(=O)C(F)(F)F)c2ccc(C)cc2C)c1 [J147],pEC50,[14],6.70
same,pEC50,Cortical neurone,7.60
same,pEC50,[15],7.70
Cc1oncc1C(=O)Nc1ccc(C(F)(F)F)cc1 [LEFLUNOMIDE],pIC50,[16],4.46
same,pIC50,HepG2,3.96
C=C1CC[C@@]2(OC1)O[C@H]1C[C@H]3[C@@H]4CC=C5C[C@H](O)C[C@H](O[C@@H]6OC[C@H](O)[C@H](O)[C@H]6O[C@@H]6O[C@@H](C)[C@H](O)[C@@H](O)[C@H]6O)[C@]5(C)[C@H]4CC[C@]3(C)[C@H]1[C@@H]2C,pKi,[17],5.00
same,inhibition at 10 µM,[18],41.9%
